The assay relates to phosphorylation of Serine 473 in Akt in MDA-MB-468 human breast adenocarcinoma cells. Briefly: In vitro phospho-Ser473 Akt assay (Test (c)). Format: cell-based. The following applies: Homo sapiens, MDA-MB-468, 2 h, MDA-MB-468 cells, 2 hours incubation; read-out: Test (c): IC50 versus Serine 473 in Akt. The method, boiled down: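 MDA-MB-468 cells (15000/well, adhered overnight) treated with compound for 2 h at 37 °C, 5% CO2. After formaldehyde fixation, permeabilisation and blocking, phospho-Akt Ser473 immunostained with Alexafluor488 secondary and quantified by laser-scanning imaging (Acumen Explorer); IC50 from fluorescence dose–response.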
Usually IC50 stands for the concentration that gives 50% inhibition. `C[C@H]1COCCN1c1cc(C(C)(C)S(C)(=O)=O)nc(-c2ccc(NC(=O)N3CCC3)cc2)n1` [Example 24be, N-[4-[4-[(3S)-3-methylmorpholin-4-yl]-6-(2-methylsulfonylpropan-2-yl)pyrimidin-2-yl]phenyl]azetidine-1-carboxamide]: the concentration for half-maximal inhibition (IC50) amounted to 4900 nM.

For `CCCNC(=O)Nc1ccc(-c2nc(N3CCOC[C@@H]3C)cc(C(C)(C)S(C)(=O)=O)n2)cc1` [Example 24ak, 3-[4-[4-[(3S)-3-methylmorpholin-4-yl]-6-(2-methylsulfonylpropan-2-yl)pyrimidin-2-yl]phenyl]-1-propyl-urea], the IC50 came to 210 nM.

`CC(C)S(=O)(=O)C(C)(C)c1cc(N2CCOC[C@@H]2C)nc(-c2ccc(NC(=O)Nc3ccc(C(F)(F)F)cc3)cc2)n1` [Example 60t, 1-[4-[4-[(3S)-3-methylmorpholin-4-yl]-6-(2-propan-2-ylsulfonylpropan-2-yl)pyrimidin-2-yl]phenyl]-3-[4-(trifluoromethyl)phenyl]urea]: the half-inhibitory concentration (IC50) worked out at 1400 nM.

As to `C[C@H]1COCCN1c1cc(CS(=O)(=O)C2CC2)nc(-c2ccc(NC(=O)NC(C)(C)CO)cc2)n1` [Example 57e, 1-[4-[4-(cyclopropylsulfonylmethyl)-6-[(3S)-3-methylmorpholin-4-yl]pyrimidin-2-yl]phenyl]-3-(1-hydroxy-2-methyl-propan-2-yl)urea], the IC50 was found to be 380 nM.

As to `C[C@H]1COCCN1c1cc(C(C)(C)S(C)(=O)=O)nc(-c2ccc(NC(=O)N3CCOCC3)cc2)n1` [Example 24bb, N-[4-[4-[(3S)-3-methylmorpholin-4-yl]-6-(2-methylsulfonylpropan-2-yl)pyrimidin-2-yl]phenyl]morpholine-4-carboxamide], the 50% inhibitory concentration (IC50) came out at 7800 nM.

Consider `CCNC(=O)Nc1ccc(-c2nc(CS(=O)(=O)C3CC3)cc(N3CCOC[C@@H]3C)n2)cc1` [Example 57j, 1-[4-[4-(cyclopropylsulfonylmethyl)-6-[(3S)-3-methylmorpholin-4-yl]pyrimidin-2-yl]phenyl]-3-ethyl-urea], for which the IC50 was 70 nM.

Turning to `C[C@H]1COCCN1c1cc(C(C)(C)S(=O)(=O)C(C)(C)C)nc(-c2ccc(NC(=O)NC3CC3)cc2)n1` [Example 66c, 3-cyclopropyl-1-[4-[4-[(3S)-3-methylmorpholin-4-yl]-6-(2-tert-butylsulfonylpropan-2-yl)pyrimidin-2-yl]phenyl]urea], the half-maximal inhibitory concentration (IC50) was determined as 150 nM.

Consider `C[C@H]1COCCN1c1cc(C(C)(C)S(=O)(=O)C2CC2)nc(-c2ccc(NC(=O)NCCO)cc2)n1` [Example 57i, 1-[4-[4-(2-cyclopropylsulfonylpropan-2-yl)-6-[(3S)-3-methylmorpholin-4-yl]pyrimidin-2-yl]phenyl]-3-(2-hydroxyethyl)urea], for which the IC50 was determined as 270 nM.

On to `C[C@H]1COCCN1c1cc(C(C)(C)S(C)(=O)=O)nc(-c2ccc(NC(=O)NCC3CC3)cc2)n1` [Example 24aq, 3-(cyclopropylmethyl)-1-[4-[4-[(3S)-3-methylmorpholin-4-yl]-6-(2-methylsulfonylpropan-2-yl)pyrimidin-2-yl]phenyl]urea], for which the concentration for half-maximal inhibition (IC50) is 2000 nM.

As to `C[C@H]1COCCN1c1cc(C(=O)N2CCCNCC2)nc(-c2ccc(NC(=O)NC3CC3)cc2)n1` [Example 63a, 3-cyclopropyl-1-[4-[4-(1,4-diazepane-1-carbonyl)-6-[(3S)-3-methylmorpholin-4-yl]pyrimidin-2-yl]phenyl]urea], the IC50 worked out at 92 nM.

As for `C[C@H]1COCCN1c1cc(C(C)(C)S(C)(=O)=O)nc(-c2ccc(NC(=O)NC3CC3)nc2)n1` [Example 24aj, 3-cyclopropyl-1-[5-[4-[(3S)-3-methylmorpholin-4-yl]-6-(2-methylsulfonylpropan-2-yl)pyrimidin-2-yl]pyridin-2-yl]urea], the IC50 turned out to be 450 nM.

For the compound `C[C@H]1COCCN1c1cc(C(C)(C)S(=O)(=O)C2CC2)nc(-c2ccc(NC(=O)Nc3cnn(C)c3)cc2)n1` [Example 57c, 1-[4-[4-(2-cyclopropylsulfonylpropan-2-yl)-6-[(3S)-3-methylmorpholin-4-yl]pyrimidin-2-yl]phenyl]-3-(1-methylpyrazol-4-yl)urea], the IC50 was 360 nM.

Source of the values: US7750003B2, “Compounds-943” (AstraZeneca AB, priority 2006, dated 2010).
